Patent publication US20240076347A1, “METHODS FOR PREVENTING FUNGAL INFECTIONS” (Cidara Therapeutics, Inc., priority 2016, published 2024)

Experiments:
[1] = format: in vivo, Wistar rats; conditions: rat, in vivo
Description: Endpoints. The rats were monitored at a frequency appropriate for their clinical condition. Rat weights were recorded at least once daily to ensure animals remained within ethical limits.
(§1) Reduction in weight and general loss of condition due to estradiol treatment are also typical in this rat model. Colonization with C. albicans was determined by quantitative culture of daily vaginal lavage samples. Rats were euthanized 9 days post infection and C. albicans determined by quantitative culture of vaginal tissue (including uterine horns).

[2] = tested on: C. albicans SC-5314 biofilms; assay: Mature phase biofilms (treatment) on silicone elastomer discs; format: cell-based, Candida albicans; conditions: 1 and 4 μg/ml
Description: (§2) Biofilms were formed on silicone elastomer (SE) discs using a catheter-associated-biofilm model (Chandra et al., Nature Protocols 3:1909, 2008; Chandra et al., J. […] Chandra et al., J. Dental Research 80: 903, 2001). For evaluation of activity against adhesion phase biofilms (prevention), Candida cells were adhered to catheter discs for 90 min. […] Discs incubated with fluconazole or media alone were used as controls in all experiments. […] Chandra et al., J. […] Chandra et al., J. Dental Research 80: 903, 2001). Following incubation with drugs, discs were transferred to fresh plates containing phosphate buffered saline with XTT and menadione, incubated for 3 h at 37° C. and optical density was read at 492 nm. Separate batches of biofilms were stained with fluorescent dyes (FUN1™, CONA) and observed under Confocal Scanning Laser Microscope (CSLM) to evaluate biofilm architecture and thickness (Chandra et al., Nature Protocols 3:1909, 2008; Chandra et al., J. […] Statistical analyses for all data were performed using GraphPad Prism 6 software. Drug treated groups were compared to control untreated groups using unpaired t-tests.

Candida auris = assay: Murine model of disseminated candidiasis (immunosuppressed CD-1 mice), treatment; format: in vivo; conditions: 20 mg/kg PO, 2 doses; Day 14
Description: Female 6-8 week old CD-1 mice were immunosuppressed with cyclophosphamide (200 mg/kg) 3 days prior to infection and 150 mg/kg 1 day post-infection. On the day of infection, mice were inoculated with 3×10^7 C. auris blastospores via the lateral tail vein. Mice were randomized into 5 groups (n=5 for colony forming units (CFU) and n=10 for survival): CD101 20 mg/kg administered by intraperitoneal (IP) injection, fluconazole 20 mg/kg administered per os (PO), amphotericin B 0.3 mg/kg IP, and a vehicle control. Treatments were administered 2 hours post-infection (Day 1) and again on Day 4 of the study for a total of 2 doses. Mice were monitored daily and a survival curve was generated. CFU groups were sacrificed on Day 8 of the study. One kidney was removed from each mouse, homogenized, plated on potato dextrose agar (PDA), and incubated at 35° C. for 2 days to determine CFU. The remaining survival mice were monitored until the end of the study (Day 14).

C. albicans strain 529L = assay: Rat model of vulvovaginal candidiasis, vaginal lavage and tissue burden; format: in vivo, Candida albicans
Description: Animal Strain. Wistar rats were supplied by Harlan Laboratories UK and were specific pathogen free. Rats weighed […] at the time of surgery. Ovariectomies were performed. Rats were allowed 4-7 days recovery before transportation to the facility where the experiment was to be performed. Following arrival, rats were allowed at least 4 days acclimatization before start of the experiment. Rats weighed 100-120 g at the time of ovariectomy and were about 300 g at start of the experiment.
Pre-conditioning. Female Wistar rats underwent ovariectomy at least 10 days prior to the study commencing. They were further pre-conditioned by treatment with 5 mg/kg 17-β-estradiol administered subcutaneously (SC) every other day on Days −7, −5, −3 and −1 prior to infection with C. albicans strain 529. Estradiol treatment continued every other day throughout the study to 7 days post-infection.
Yeast Isolate. Candida albicans strain 529L was used in this chronic rat vaginal infection model.
Infection. Yeast strains were inoculated aerobically onto Sabouraud dextrose agar media (SAB) containing 0.05 mg/mL chloramphenicol and incubated at 30° C. for 48-72 h. 18-24 h prior to infection, Yeast Peptone Dextrose (YPD) broths were inoculated with 2-3 isolated colonies from agar plates and incubated overnight (37° C. on an orbital shaker). Broths containing C. albicans strain 529L were washed 3 times with sterile phosphate buffered saline (PBS) before dilution to the correct inoculum for infection. Cell counts were determined using a haemocytometer and confirmed by quantitative culture on Sabouraud dextrose agar.
Rats were infected with 0.1 mL by intravaginal administration under inhaled isoflurane anaesthesia using about 9.8×10^5 CFU/mL (9.8×10^4 CFU/Rat) C. albicans strain 529L
Treatment. […] The fluconazole treatment also started at 24 h post infection but was administered by the PO route at the dose volume and frequency shown in Table 7. The study design is further outlined in FIG. 19.
as §1
Lavage samples were obtained on Days 1 (pre-treatment), 2, 3, 5, 7, and 9 days post infection by flushing rat vaginas 4 times with 0.1 mL pre-warmed sterile PBS. Following euthanasia, vaginal tissue including uterine horns was removed prior to weighing. Tissues were homogenized in 2 mL sterile PBS using a bead-beater. Vaginal wash and tissue homogenates were diluted appropriately then quantitatively cultured on to Sabouraud dextrose agar containing 0.05 mg/mL chloramphenicol and incubated at 37° C. for up to 72 h before being counted.
Statistical analysis. Data were analyzed using StatsDirect software (version 2.7.8) using the non-parametric Kruskal-Wallis test and if this was statistically significant all pairwise comparisons were analyzed (Conover-Inman).

[3] = tested on: C. albicans SC-5314 biofilms; assay: Adhesion phase biofilms (prevention) on silicone elastomer discs; format: cell-based, Candida albicans; conditions: 1 and 4 μg/ml
Description: as §2

[4] = lavage Day 1 post treatment (Day 2 post infection), 20 mg/kg PO dosed once
[5] = lavage Day 1 post treatment (Day 2 post infection), 20 mg/kg PO dosed twice
[6] = lavage Day 2 post treatment (Day 3 post infection), 20 mg/kg PO dosed once
[7] = lavage Day 2 post treatment (Day 3 post infection), 20 mg/kg PO dosed twice
[8] = lavage Day 4 post treatment (Day 5 post infection), 20 mg/kg PO dosed once
[9] = lavage Day 4 post treatment (Day 5 post infection), 20 mg/kg PO dosed twice
[10] = lavage Day 6 post treatment (Day 7 post infection), 20 mg/kg PO dosed once
[11] = lavage Day 6 post treatment (Day 7 post infection), 20 mg/kg PO dosed twice
[12] = lavage Day 8 post treatment (Day 9 post infection), 20 mg/kg PO dosed once
[13] = lavage Day 8 post treatment (Day 9 post infection), 20 mg/kg PO dosed twice
[14] = terminal vaginal tissue Day +9 post infection, 20 mg/kg PO dosed once
[15] = terminal vaginal tissue Day +9 post infection, 20 mg/kg PO dosed twice
[16] = vaginal lavage Day 1 post infection, pre-treatment, 20 mg/kg PO dosed once group
[17] = vaginal lavage Day 1 post infection, pre-treatment, 20 mg/kg PO dosed twice group

In the case of `OC(Cn1cncn1)(Cn1cncn1)c1ccc(F)cc1F` [Fluconazole, fluconazole, reference compound], the tolerability [1] is reported as “well tolerated with no adverse events observed”, the “biofilm architecture (CSLM)” value [2] is reported as “did not affect Candida biofilms” and the thickness of biofilms [2] is reported as “had no effect”. For the same compound, the “biofilm metabolic activity (XTT)” value ([2]; 24 h, P>0.05) was “neither concentrations of fluconazole (1 and 4 μg/ml) affected these biofilms”, the “percent survival at the end of the study” value (Candida auris) was 0% and the “terminal vaginal tissue burden” value (C. albicans strain 529L; 20 mg/kg PO once or twice, all rats, Day 9) was “below the limit of detection”. For the same compound, the lavage burden (C. albicans strain 529L; Day 5 post infection, 20 mg/kg PO once or twice, all rats) was “below the limit of detection”, the “Group Geometric mean” value (C. albicans strain 529L; [4]) was 1.50 × 10^2 CFU/mL and the “Log Group Geometric mean” value (C. albicans strain 529L; [4]) was 2.18 CFU/mL. For the same compound, the “Log reduction from vehicle control” value (C. albicans strain 529L; [4]) was 1.52 CFU/mL, the “Group Geometric mean” value (C. albicans strain 529L; [5]) was 1.27 × 10^2 CFU/mL and the “Log Group Geometric mean” value (C. albicans strain 529L; [5]) was 2.10 CFU/mL. For the same compound, the “Log reduction from vehicle control” value (C. albicans strain 529L; [5]) was 1.59 CFU/mL, the “burden vs vehicle, statistics” value (C. albicans strain 529L; lavage Day 2 post infection) was “neither the CD101 nor fluconazole burden was statistically different from the vehicle burden” and the reduction in burden (C. albicans strain 529L; lavage Day 2 post infection, fluconazole 20 mg/kg PO) was “about 1.6 Log10 CFU/mL”. For the same compound, the “Group Geometric mean” value (C. albicans strain 529L; [6]) was 1.00 CFU/mL, the “Log Group Geometric mean” value (C. albicans strain 529L; [6]) was 0.00 CFU/mL and the “Log reduction from vehicle control” value (C. albicans strain 529L; [6]) was 3.57 CFU/mL. The “Group Geometric mean” value (C. albicans strain 529L; [7]) was 1.49 CFU/mL, the “Log Group Geometric mean” value (C. albicans strain 529L; [7]) was 0.17 CFU/mL and the “Log reduction from vehicle control” value (C. albicans strain 529L; [7]) was 3.40 CFU/mL. The “rats having burden below the limit of detection” value (C. albicans strain 529L; lavage Day 3 post infection, 20 mg/kg PO once or twice) was 11/12, the “burden vs vehicle, statistics” value (C. albicans strain 529L; lavage Day 3 post infection, all treatments) was “statistically different from the vehicle treatments” and the “Group Geometric mean” value (C. albicans strain 529L; [8]) was 1.00 CFU/mL. For the same compound, the “Log Group Geometric mean” value (C. albicans strain 529L; [8]) was 0.00 CFU/mL, the “Log reduction from vehicle control” value (C. albicans strain 529L; [8]) was 4.22 CFU/mL and the “Group Geometric mean” value (C. albicans strain 529L; [9]) was 1.00 CFU/mL. The “Log Group Geometric mean” value (C. albicans strain 529L; [9]) was 0.00 CFU/mL, the “Log reduction from vehicle control” value (C. albicans strain 529L; [9]) was 4.22 CFU/mL and the “Group Geometric mean” value (C. albicans strain 529L; [10]) was 1.00 CFU/mL. The “Log Group Geometric mean” value (C. albicans strain 529L; [10]) was 0.00 CFU/mL, the “Log reduction from vehicle control” value (C. albicans strain 529L; [10]) was 4.18 CFU/mL and the “Group Geometric mean” value (C. albicans strain 529L; [11]) was 1.00 CFU/mL. For the same compound, the “Log Group Geometric mean” value (C. albicans strain 529L; [11]) was 0.00 CFU/mL, the “Log reduction from vehicle control” value (C. albicans strain 529L; [11]) was 4.18 CFU/mL and the “Group Geometric mean” value (C. albicans strain 529L; [12]) was 1.00 CFU/mL. For the same compound, the “Log Group Geometric mean” value (C. albicans strain 529L; [12]) was 0.00 CFU/mL, the “Log reduction from vehicle control” value (C. albicans strain 529L; [12]) was 4.30 CFU/mL and the “Group Geometric mean” value (C. albicans strain 529L; [13]) was 1.00 CFU/mL. For the same compound, the “Log Group Geometric mean” value (C. albicans strain 529L; [13]) was 0.00 CFU/mL, the “Log reduction from vehicle control” value (C. albicans strain 529L; [13]) was 4.30 CFU/mL and the “Group Geometric mean” value (C. albicans strain 529L; [14]) was 1.00 CFU/g. The “Log Group Geometric mean” value (C. albicans strain 529L; [14]) was 0.00 CFU/g, the “Log reduction from vehicle control” value (C. albicans strain 529L; [14]) was 5.49 CFU/g and the “Group Geometric mean” value (C. albicans strain 529L; [15]) was 1.00 CFU/g. For the same compound, the “Log Group Geometric mean” value (C. albicans strain 529L; [15]) was 0.00 CFU/g, the “Log reduction from vehicle control” value (C. albicans strain 529L; [15]) was 5.49 CFU/g and the “Group Geometric mean” value (C. albicans strain 529L; [16]) was 3.16 × 10^3 CFU/mL. For the same compound, the “Log Group Geometric mean” value (C. albicans strain 529L; [16]) was 3.50 CFU/mL, the “Log reduction from vehicle control” value (C. albicans strain 529L; [16]) was −1.06 CFU/mL and the “Group Geometric mean” value (C. albicans strain 529L; [17]) was 1.04 × 10^3 CFU/mL. For the same compound, the “Log Group Geometric mean” value (C. albicans strain 529L; [17]) was 3.02 CFU/mL, the “Log reduction from vehicle control” value (C. albicans strain 529L; [17]) was −0.58 CFU/mL and the thickness of biofilms [3] was “no effect on biofilm thickness”. For the same compound, the “biofilm metabolic activity (XTT)” value ([3]; 24 h, P>0.05) was “did not inhibit biofilm formation”.
